Drawing on PubChem BioAssay AID1259408 (Genetic Toxicology Data Bank (GENE-TOX), 2018), this text covers mutagenic call and call for 34 compounds.

Active and inactive are the calls of the source. The rule behind the calls is not given here.

The test system of this data set is GENE-TOX genotoxicity assays, various organisms and cells. As to the kind of experiment: GENE-TOX mutagenicity studies. Conditions: for call: Assay Type: In vivo carcinogenicity studies.
The mark [1] stands for this setting: Species/Cell Type: Salmonella typhimurium (one or more of the five standard strains: TA98, TA100, TA1535, TA1537, and TA1538), Assay Type: Histidine reverse gene mutation, Ames assay, Assay Code: SAL+*, Activation: With metabolic activation, Evaluation Type: Evaluation A (Pre-1980).
Setting [2] is: Species/Cell Type: Drosophila melanogaster, Assay Type: Sex-linked recessive lethal gene mutation, Assay Code: SRLT, Evaluation Type: Evaluation A (Pre-1980).
Where [3] appears, read: Species/Cell Type: Salmonella typhimurium (one or more of the five standard strains: TA98, TA100, TA1535, TA1537, and TA1538), Assay Type: Histidine reverse gene mutation, Ames assay, Assay Code: SAL+, Evaluation Type: Evaluation A (Pre-1980).
Where [4] appears, read: Species/Cell Type: Bacillus subtilis (H17 vs M45), Assay Type: Rec-assay, spot test, DNA effects (bacterial DNA repair), Assay Code: REW-, Evaluation Type: Evaluation A (Pre-1980).
Where [5] appears, read: Species/Cell Type: Bacillus subtilis (H17 vs M45), Assay Type: Rec-assay, spot test, DNA effects (bacterial DNA repair), Assay Code: REW+, Evaluation Type: Evaluation A (Pre-1980).
Where [6] appears, read: Species/Cell Type: Nonhuman, Assay Type: Sister-chromatid exchange (SCE) in vitro, Assay Code: SC2+, Evaluation Type: Evaluation B (Post-1980).
Where [7] appears, read: Species/Cell Type: Nonhuman, Assay Code: CCG+L, Evaluation Type: Evaluation A (Pre-1980).
The mark [8] stands for this setting: Species/Cell Type: Salmonella typhimurium (one or more of the five standard strains: TA98, TA100, TA1535, TA1537, and TA1538), Assay Type: Histidine reverse gene mutation, Ames assay, Assay Code: SALT, Evaluation Type: Evaluation A (Pre-1980).
[9] abbreviates: Species/Cell Type: Human diploid fibroblasts, Assay Type: Unscheduled DNA synthesis (UDS) in vitro, DNA effects, Assay Code: UDH-, Evaluation Type: Evaluation A (Pre-1980).
The mark [10] stands for this setting: Species/Cell Type: Nonhuman, Assay Code: CCG-, Evaluation Type: Evaluation A (Pre-1980).

Consider `CCN(CCO)CCCNc1c2ccc(Cl)cc2nc2ccc(OC)cc12`, for which the mutagenic call reads like this: (Species/Cell Type: Chinese hamster ovary (CHO) cells, Assay Type: Forward gene mutation at the HPRT locus, Assay Code: CHO-, Evaluation Type: Evaluation A (Pre-1980)) “inactive; negative”; (Species/Cell Type: Chinese hamster ovary (CHO) cells, Assay Type: Forward gene mutation at the HPRT locus, Assay Code: CHOT, Evaluation Type: Evaluation B (Post-1980)) “no conclusion”.

For the compound `CC1CS(=O)(=O)CCN1/N=C/c1ccc([N+](=O)[O-])o1` (stereo not drawn), the mutagenic call (Species/Cell Type: Mammalian polychromatic erythrocytes, Assay Type: Micronucleus test, chromosome aberrations, Assay Code: MNT+, Evaluation Type: Evaluation B (Post-1980)) is “active; positive”.

Regarding `Cc1cc2c3ccccc3ccc2c2ccccc12`, the mutagenic call under setting [1] is “active; positive”.

On to `ONc1ccc2c(c1)Cc1ccccc1-2`, for which the mutagenic call was “no conclusion” under setting [2]; “active; positive” (Species/Cell Type: Escherichia coli polA (W3119 vs P3478), Assay Type: Rec-assay, DNA effects (bacterial DNA repair), Assay Code: RE1+, Evaluation Type: Evaluation A (Pre-1980)); “active; positive” under setting [3].

In the case of `NC(=O)C#CC(N)=O`, the mutagenic call under setting [4] was “inactive; negative”.

As to `O=[Te](=O)(O)O`, the mutagenic call was “active; positive” under setting [5] and “inactive; negative” under setting [4].

With `CC(C)(O)CCc1ccc(O)c2c(=O)c3c(O)c4c(cc3oc12)O[C@H]1OC=C[C@@]41O`, the mutagenic call under setting [1] was “active; positive”.

For `CN=C=O`, under “Species/Cell Type: Mammalian polychromatic erythrocytes, Assay Type: Micronucleus test, chromosome aberrations, Assay Code: MNT+U, Dose Response: Unconfirmed positive response, Evaluation Type: Evaluation B (Post-1980)”, the mutagenic call is “active; positive”.

Take `CCC(=O)O[C@H]1CC[C@H]2[C@@H]3CCC4=CC(=O)CC[C@]4(C)[C@H]3CC[C@]12C`: the mutagenic call (Species/Cell Type: Human, Sex: Male, Assay Type: Sperm morphology, Assay Code: SPH+, Evaluation Type: Evaluation A (Pre-1980)) was “active; positive”. Besides, the call (Species/Cell Type: Nonhuman, Assay Code: CCG+, Evaluation Type: Evaluation A (Pre-1980)) was “active; positive”.

For the compound `C=COCC(F)(F)F`, the mutagenic call is, setting by setting: under setting [6], “active; positive”; under setting [1], “active; positive”; (Species/Cell Type: Salmonella typhimurium and Escherichia coli, Assay Type: Forward and reverse gene mutation, body fluid assay, Assay Code: BFB-, Evaluation Type: Evaluation A (Pre-1980)) “inactive; negative”.

Turning to `OCC1=C[C@H](N[C@H]2C[C@H](CO)[C@@H](O[C@@H]3O[C@H](CO)[C@@H](O)[C@H](O)[C@H]3O)[C@H](O)[C@H]2O)[C@H](O)[C@@H](O)[C@@H]1O`, the mutagenic call under setting [4] was “inactive; negative”.

Consider `Nc1cccc2c1-c1ccccc1C2`, for which the mutagenic call is “inactive; negative” (Species/Cell Type: Fischer rat embryo (RLV/1706) cells, Assay Type: Cell transformation, viral enhanced, Assay Code: CTR-, Evaluation Type: Evaluation A (Pre-1980)) and “inactive; negative” (Species/Cell Type: Mouse embryo (AKR/ME) cells, Assay Type: Cell transformation, Assay Code: CTK-, Evaluation Type: Evaluation A (Pre-1980)).

On to `CC1(C)O[C@@H]2C[C@H]3[C@@H]4C[C@H](F)C5=CC(=O)C=C[C@]5(C)[C@@]4(F)[C@@H](O)C[C@]3(C)[C@]2(C(=O)CO)O1`, for which, for the setting “Species/Cell Type: Syrian hamster embryo (SA7/SHE) cells, Assay Type: Cell transformation, viral enhanced, Assay Code: CT7+, Evaluation Type: Evaluation A (Pre-1980)”, the mutagenic call was “active; positive”.

Take `Cc1cc(O)c2c(c1O)C(=O)C13C(=C2O)C(=O)C2C(O)C1C1C(O)C3C(=O)C3=C(O)c4c(O)cc(C)c(O)c4C(=O)C321` (stereo not drawn): the mutagenic call was “active; positive” under setting [5] and “active; positive” (Species/Cell Type: Human lymphocytes or leukocytes, Assay Type: Chromosome aberrations in vitro, Assay Code: CY7+, Evaluation Type: Evaluation A (Pre-1980)). Moreover, the call under setting [7] is “active; positive”.

`Cc1cc2c(c3ccc4ccccc4c13)CCCC2C` (stereo not drawn): the mutagenic call under setting [8] is listed as “no conclusion”.

In the case of `O=C(NO)c1cc2ccccc2[nH]1`, the mutagenic call under setting [3] is “active; positive”.

Turning to `O=c1[nH]c(=O)c2[nH]cnc2[nH]1`, the mutagenic call under setting [2] was “no conclusion”.

With `CCOP(=S)(OCC)Oc1cc(C)nc(C(C)C)n1`, the mutagenic call was “no conclusion” (Species/Cell Type: Bacillus subtilis (H17 vs M45), Assay Type: Rec-assay, spot test, DNA effects (bacterial DNA repair), Assay Code: REWT, Evaluation Type: Evaluation A (Pre-1980)); “inactive; negative” (Species/Cell Type: Escherichia coli WP2 UVRA, Assay Type: Tryptophan reverse gene mutation, Assay Code: WPU-*, Activation: With metabolic activation, Evaluation Type: Evaluation A (Pre-1980)); “no conclusion” (Species/Cell Type: Escherichia coli polA (W3119 vs P3478), Assay Type: Rec-assay, DNA effects (bacterial DNA repair), Assay Code: RE1T, Evaluation Type: Evaluation A (Pre-1980)); “inactive; negative” under setting [9]; “active; positive” (Species/Cell Type: Human, Assay Type: Sister-chromatid exchange (SCE) in vitro, Assay Code: SC1+, Evaluation Type: Evaluation B (Post-1980)); “active; positive” under setting [6]. The mutagenic call runs as follows: (Species/Cell Type: Saccharomyces cerevisiae, Assay Type: Mitotic recombination or gene conversion, Assay Code: YEH-, Evaluation Type: Evaluation A (Pre-1980)) “inactive; negative”; (Species/Cell Type: Salmonella typhimurium (one or more of the five standard strains: TA98, TA100, TA1535, TA1537, and TA1538), Assay Type: Histidine reverse gene mutation, Ames assay, Assay Code: SAL-, Evaluation Type: Evaluation A (Pre-1980)) “inactive; negative”. Moreover, the call under setting [10] is “inactive; negative”.

In the case of `Cc1c2ccccc2c(C)c2c1ccc1c(O)cccc12`, the mutagenic call (Species/Cell Type: Chinese hamster lung (V79) cells, Assay Type: Forward gene mutation at the HPRT or ouabain locus, Assay Code: V79-*, Activation: With metabolic activation, Evaluation Type: Evaluation A (Pre-1980)) is “inactive; negative”. Further, where the note is “Species/Cell Type: Nonhuman, Assay Code: CCGT, Evaluation Type: Evaluation A (Pre-1980)”, the call is “no conclusion”.

Take `Nc1cc([N+](=O)[O-])ccc1C(=O)O`: under setting [10], the call was “inactive; negative”.

For `CC(=O)Nc1ccc(C(=O)CCl)cc1`, under setting [10], the call is “inactive; negative”.

With `CC(=O)OC[C@H]1OC(OC(C)=O)[C@H](NC(=O)N(C)N=O)[C@@H](OC(C)=O)[C@@H]1OC(C)=O` (stereo partly drawn), the mutagenic call (Species/Cell Type: Chinese hamster lung (V79) cells, Assay Type: Forward gene mutation at the HPRT or ouabain locus, Assay Code: V79+, Evaluation Type: Evaluation A (Pre-1980)) was “active; positive”.

On to `CN(N=O)C(=O)Nc1nc2ccccc2s1`, for which the mutagenic call runs as follows: (Species/Cell Type: Neurospora crassa, Assay Type: Forward gene mutation, Assay Code: NEF+, Evaluation Type: Evaluation A (Pre-1980)) “active; positive”; (Species/Cell Type: Saccharomyces cerevisiae, Assay Type: Mitotic recombination or gene conversion, Assay Code: YEC+, Evaluation Type: Evaluation A (Pre-1980)) “active; positive”.

As to `COC[CH2][Hg][Cl]`, the mutagenic call was “inactive; negative” (Species/Cell Type: Drosophila melanogaster, Assay Type: Aneuploidy, sex chromosome gain, chromosome aberrations, Assay Code: DAG-F-M, Evaluation Type: Evaluation A (Pre-1980)) and “inactive; negative” (Species/Cell Type: Drosophila melanogaster, Assay Type: Aneuploidy, whole sex chromosome loss, chromosome aberrations, Assay Code: DAC-M-F, Evaluation Type: Evaluation A (Pre-1980)).

With `CC1=C(/C=C/C(C)=C/C=C/C(C)=C/COc2ccccc2)C(C)(C)CCC1`, for the setting “Species/Cell Type: Human, Assay Type: Sister-chromatid exchange (SCE) in vitro, Assay Code: SC1+D, Dose Response: With dose response, Evaluation Type: Evaluation B (Post-1980)”, the mutagenic call is “active; positive”.

Take `COc1cccc2oc3c4c(cc(OC)c3c(=O)c12)O[C@H]1OC=C[C@@H]41`: the mutagenic call under setting [8] is “no conclusion”.

`ClCc1c2ccccc2cc2c1ccc1ccccc12`: under setting [3], the mutagenic call is “active; positive”.

Regarding `CCS(=O)CCSP(=S)(OC)OC` (stereo not drawn), the mutagenic call under setting [2] is listed as “no conclusion”.

Consider `CC(=O)Nc1ccc(O)cc1`, for which the mutagenic call reads like this: (Species/Cell Type: Human lymphocytes, Assay Type: Sister-chromatid exchange (SCE) in vitro, Assay Code: SCL-, Evaluation Type: Evaluation B (Post-1980)) “inactive; negative”; under setting [8], “no conclusion”.

For `Nc1ncnc2c1ncn2[C@H]1C[C@H](O)[C@@H](CO)O1`, the mutagenic call is “inactive; negative” (Species/Cell Type: Glycine max (soybean), Assay Type: Gene mutation, Assay Code: GLM-, Evaluation Type: Evaluation A (Pre-1980)) and “no conclusion” (Species/Cell Type: Nonhuman, Assay Type: Sister-chromatid exchange (SCE) in vitro, Assay Code: SC2T, Evaluation Type: Evaluation B (Post-1980)).

Turning to `O=C1O[C@H]([C@H](O)CO)C(O)=C1O`, the mutagenic call (Species/Cell Type: Human, Assay Type: Sister-chromatid exchange (SCE) in vitro, Assay Code: SC1T, Evaluation Type: Evaluation B (Post-1980)) is recorded as “no conclusion”.

`O=c1cc[nH]c(=S)[nH]1`: the mutagenic call under setting [2] is recorded as “no conclusion”.

Take `NS(=O)(=O)c1ccccc1C(=O)O`: the mutagenic call (Species/Cell Type: Mammalian polychromatic erythrocytes, Assay Type: Micronucleus test, chromosome aberrations, Assay Code: MNTT, Evaluation Type: Evaluation B (Post-1980)) is given as “no conclusion”.

For the compound `CC(=O)Nc1ccc2c(ccc3ccccc32)c1`, the mutagenic call under setting [9] is “inactive; negative”. Under setting [7], the call is “active; positive”.
